# Measured values taken from patent US20220089612A1, “HETEROCYCLIC COMPOUNDS AS PRMT5 INHIBITORS” (ANGEX PHARMACEUTICAL, INC., priority 2017, published 2022).
# Molecular target: PRMT5:MEP50 (Homo sapiens, UniProt O14744)
# Assay: PRMT5:MEP50 Flashplate Assay
# Type: biochemical
# Conditions: PRMT5:MEP50 inhibitory activity; 3H-SAM, 2 h at room temperature, top concentration 10 μM
# Description: PRMT5:MEP50 Flashplate Assay:
# Ten-point curves of inhibitor compounds were made using serial threefold dilutions in DMSO (the final top concentration of compound was 10 μM, 1% DMSO). Reaction mixture consisting of 50 mM Tris-HCl (pH 8.5), 0.002% Tween 20, 0.005% BSA (Bovine Serum Albumin), 1 mM TCEP, and 1% DMSO. Substrates are freshly prepared in reaction buffer. PRMT5:MEP50 was then added into substrate solution and mixed gently. Inhibitor compound was then added and incubated for 30 min at room temperature. ^3H-SAM was added to initiate the reaction. Reactions were incubated for 2 h at room temperature and quenched with 0.5 mM SAM (S-adenosyl-L-Methionine) in assay buffer. An aliquot of the reaction mix was transferred to a streptavidin-coated 384-well FlashPlate (PerkinElmer). After an incubation time of 1 h, the plate was washed and then read on a TopCount (PerkinElmer) to measure the amount of tritium incorporated into the peptide substrate. IC50 was calculated using conventional curve-fitting method.
# PRMT5:MEP50, sequence (O14744 whole entry, species assumed): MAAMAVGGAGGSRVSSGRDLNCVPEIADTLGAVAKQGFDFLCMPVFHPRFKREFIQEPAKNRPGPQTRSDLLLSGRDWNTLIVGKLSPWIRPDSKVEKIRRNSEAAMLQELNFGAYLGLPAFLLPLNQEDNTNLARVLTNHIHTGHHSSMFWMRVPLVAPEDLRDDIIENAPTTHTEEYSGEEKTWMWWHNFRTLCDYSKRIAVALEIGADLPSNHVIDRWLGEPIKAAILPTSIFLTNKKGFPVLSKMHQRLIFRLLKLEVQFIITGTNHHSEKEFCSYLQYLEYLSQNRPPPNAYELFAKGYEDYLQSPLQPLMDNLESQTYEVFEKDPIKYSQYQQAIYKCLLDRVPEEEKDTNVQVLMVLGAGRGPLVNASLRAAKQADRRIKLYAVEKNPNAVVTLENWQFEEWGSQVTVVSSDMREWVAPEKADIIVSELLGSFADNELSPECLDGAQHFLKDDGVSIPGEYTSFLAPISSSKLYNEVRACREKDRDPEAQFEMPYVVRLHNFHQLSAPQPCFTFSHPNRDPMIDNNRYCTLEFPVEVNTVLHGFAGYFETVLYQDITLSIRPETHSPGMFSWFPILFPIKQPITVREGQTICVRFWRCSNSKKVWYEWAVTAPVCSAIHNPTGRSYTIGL
# PRMT5:MEP50, sequence (Q9BQA1 whole entry partner, species assumed): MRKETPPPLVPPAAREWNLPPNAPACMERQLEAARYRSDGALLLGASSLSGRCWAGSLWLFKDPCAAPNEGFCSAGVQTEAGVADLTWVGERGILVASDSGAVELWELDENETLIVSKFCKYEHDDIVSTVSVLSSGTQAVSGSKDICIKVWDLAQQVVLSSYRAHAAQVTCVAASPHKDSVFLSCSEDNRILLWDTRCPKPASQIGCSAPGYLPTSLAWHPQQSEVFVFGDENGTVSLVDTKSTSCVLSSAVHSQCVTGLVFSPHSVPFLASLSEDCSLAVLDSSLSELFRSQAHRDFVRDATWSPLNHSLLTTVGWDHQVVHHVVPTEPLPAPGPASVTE
row,SMILES,IC50 [nM]
1,"Nc1ncnc2c1ccn2[C@@H]1C[C@H](CCc2ccc3cc4c(=O)n(-c5ccccc5)[nH]c4nc3c2)[C@@H](O)[C@H]1O [Compound 1-33, 7-(2-((1S,2R,3S,4R)-4-(4-amino-7H-pyrrolo[2,3-d]pyrimidin-7-yl)-2,3-dihydroxycyclopentyl)ethyl)-2-phenyl-1,2-dihydro-3H-pyrazolo[3,4-b]quinolin-3-one]",> 100
2,"Cn1[nH]c2nc3cc(CC[C@H]4C[C@@H](n5ccc6c(N)ncnc65)[C@H](O)[C@@H]4O)ccc3cc2c1=O [Compound 1-34, 7-(2-((1S,2R,3S,4R)-4-(4-amino-7H-pyrrolo[2,3-d]pyrimidin-7-yl)-2,3-dihydroxycyclopentyl)ethyl)-2-methyl-1,2-dihydro-3H-pyrazolo[3,4-b]quinolin-3-one]",> 100
3,"Nc1ncnc2c1ccn2[C@@H]1C[C@H](CCc2ccc3cc4c(nc3c2)NCCC4)[C@@H](O)[C@H]1O [Compound 1-35, (1R,2S,3R,5S)-3-(4-amino-7H-pyrrolo[2,3-d]pyrimidin-7-yl)-5-(2-(1,2,3,4-tetrahydrobenzo[b][1,8]naphthyridin-8-yl)ethyl)cyclopentane-1,2-diol]",< 1
4,"C[C@H]1CCc2cc3ccc(CC[C@H]4C[C@@H](n5ccc6c(N)ncnc65)[C@H](O)[C@@H]4O)cc3nc2N1 [Compound 1-36, (1R,2S,3R,5S)-3-(4-amino-7H-pyrrolo[2,3-d]pyrimidin-7-yl)-5-(2-((S)-2-methyl-1,2,3,4-tetrahydrobenzo[b][1,8]naphthyridin-8-yl)ethyl)cyclopentane-1,2-diol]",< 1
5,"C[C@@H]1CCc2cc3ccc(CC[C@H]4C[C@@H](n5ccc6c(N)ncnc65)[C@H](O)[C@@H]4O)cc3nc2N1 [Compound 1-37, (1R,2S,3R,5S)-3-(4-amino-7H-pyrrolo[2,3-d]pyrimidin-7-yl)-5-(2-((R)-2-methyl-1,2,3,4-tetrahydrobenzo[b][1,8]naphthyridin-8-yl)ethyl)cyclopentane-1,2-diol]",< 1
6,"Nc1ncnc2c1ccn2[C@@H]1C[C@H](CCc2ccc3cc4c(nc3c2)N[C@H](C2CC2)CC4)[C@@H](O)[C@H]1O [Compound 1-38, (1R,2S,3R,5S)-3-(4-amino-7H-pyrrolo[2,3-d]pyrimidin-7-yl)-5-(2-((S)-2-cyclopropyl-1,2,3,4-tetrahydrobenzo[b][1,8]naphthyridin-8-yl)ethyl)cyclopentane-1,2-diol]",< 1
7,"CC(C)[C@@H]1CCc2cc3ccc(CC[C@H]4C[C@@H](n5ccc6c(N)ncnc65)[C@H](O)[C@@H]4O)cc3nc2N1 [Compound 1-39, (1R,2S,3R,5S)-3-(4-amino-7H-pyrrolo[2,3-d]pyrimidin-7-yl)-5-(2-((S)-2-isopropyl-1,2,3,4-tetrahydrobenzo[b][1,8]naphthyridin-8-yl)ethyl)cyclopentane-1,2-diol]",1 to 100
8,"Nc1ncnc2c1ccn2[C@@H]1C[C@H](CCc2ccc3cc4c(nc3c2)N[C@H](C2CCC2)CC4)[C@@H](O)[C@H]1O [Compound 1-40, (1R,2S,3R,5S)-3-(4-amino-7H-pyrrolo[2,3-d]pyrimidin-7-yl)-5-(2-((S)-2-cyclobutyl-1,2,3,4-tetrahydrobenzo[b][1,8]naphthyridin-8-yl)ethyl)cyclopentane-1,2-diol]",1 to 100
9,"Nc1ncnc2c1ccn2[C@@H]1C[C@H](CCc2ccc3cc4c(nc3c2)NCCCC4)[C@@H](O)[C@H]1O [Compound 1-41, (1R,2S,3R,5S)-3-(4-amino-7H-pyrrolo[2,3-d]pyrimidin-7-yl)-5-(2-(2,3,4,5-tetrahydro-1H-azepino[2,3-b]quinolin-9-yl)ethyl)cyclopentane-1,2-diol]",< 1
10,"CC1(C)CNc2nc3cc(CC[C@H]4C[C@@H](n5ccc6c(N)ncnc65)[C@H](O)[C@@H]4O)ccc3cc21 [Compound 2-3, (1R,2S,3R,5S)-3-(4-amino-7H-pyrrolo[2,3-d]pyrimidin-7-yl)-5-(2-(3,3-dimethyl-2,3-dihydro-1H-pyrrolo[2,3-b]quinolin-7-yl)ethyl)cyclopentane-1,2-diol]",< 1
11,"Nc1ncnc2c1ccn2[C@@H]1O[C@H](CCc2ccc3cc4c(nc3c2)NCC4)[C@@H](O)[C@H]1O [Compound 3-8, (2R,3R,4S,5R)-2-(4-amino-7H-pyrrolo[2,3-d]pyrimidin-7-yl)-5-(2-(2,3-dihydro-1H-pyrrolo[2,3-b]quinolin-7-yl)ethyl)tetrahydrofuran-3,4-diol]",1 to 100
12,"CC1(C)CNc2nc3cc(CC[C@H]4O[C@@H](n5ccc6c(N)ncnc65)[C@H](O)[C@@H]4O)ccc3cc21 [Compound 3-9, (2R,3R,4S,5R)-2-(4-amino-7H-pyrrolo[2,3-d]pyrimidin-7-yl)-5-(2-(3,3-dimethyl-2,3-dihydro-1H-pyrrolo[2,3-b]quinolin-7-yl)ethyl)tetrahydrofuran-3,4-diol]",1 to 100
13,"NC1=Nc2cc(CC[C@H]3O[C@@H](n4ccc5c(N)ncnc54)[C@H](O)[C@@H]3O)ccc2C2=NCCN12 [Compound 3-10, (2R,3S,4R,5R)-2-(2-(5-amino-2,3-dihydroimidazo[1,2-c]quinazolin-8-yl)ethyl)-5-(4-amino-7H-pyrrolo[2,3-d]pyrimidin-7-yl)tetrahydrofuran-3,4-diol]",< 1
14,"Nc1ncnc2c1ccn2[C@@H]1O[C@H](CCc2ccc3c(c2)nc(N)n2ccnc32)[C@@H](O)[C@H]1O [Compound 3-11, (2R,3R,4S,5R)-2-(4-amino-7H-pyrrolo[2,3-d]pyrimidin-7-yl)-5-(2-(5-aminoimidazo-[1,2-c]quinazolin-8-yl)ethyl)tetrahydrofuran-3,4-diol]",1 to 100
15,"Nc1ncnc2c1ccn2[C@@H]1O[C@H](CCc2ccc3cc4cn[nH]c4nc3c2)[C@@H](O)[C@H]1O [Compound 3-12, (2R,3S,4R,5R)-2-(2-(1H-pyrazolo[3,4-b]quinolin-7-yl)ethyl)-5-(4-amino-7H-pyrrolo[2,3-d]pyrimidin-7-yl)tetrahydrofuran-3,4-diol]",1 to 100
16,"Nc1ncnc2c1ccn2[C@@H]1O[C@H](CCc2ccc3cc4c(nc3c2)NCCC4)[C@@H](O)[C@H]1O [Compound 3-13, (2R,3R,4S,5R)-2-(4-amino-7H-pyrrolo[2,3-d]pyrimidin-7-yl)-5-(2-(1,2,3,4-tetrahydrobenzo[b][1,8]naphthyridin-8-yl)ethyl)tetrahydrofuran-3,4-diol]",< 1
17,"Nc1ncnc2c1ccn2[C@@H]1C[C@H](CCc2ccc3cc4cc[nH]c4nc3c2)[C@@H](O)[C@H]1O [Compound 4-3, (1S,2R,3S,5R)-3-(2-(1H-pyrrolo[2,3-b]quinolin-7-yl)ethyl)-5-(4-amino-7H-pyrrolo[2,3-d]pyrimidin-7-yl)cyclopentane-1,2-diol]",1 to 100
